According to paper PMC1084334 (PLoS Biology, 2005):
Like-named read-outs stand apart in the source and are kept apart here. Values belong to the molecule of their own block, whether it stands above or below them.

What was measured:
SynGUN4 [1] = target: T1, SynGUN4 (Synechocystis sp. PCC 6803, UniProt P72583); assay: tryptophan fluorescence quenching; type: binding
T1 construct: gene sll0558; full length, residues 1-233; E. coli BL21(DE3)

SynGUN4 [2] = target: T2, SynGUN4 (Synechocystis sp. PCC 6803, UniProt P72583, R113A); assay: tryptophan fluorescence quenching; type: binding; conditions: read-out: dissociation constant
T2 construct: gene sll0558; full length, residues 1-233; E. coli BL21(DE3)
T2 sequence (P72583 whole entry R113A, the tested form may be a part): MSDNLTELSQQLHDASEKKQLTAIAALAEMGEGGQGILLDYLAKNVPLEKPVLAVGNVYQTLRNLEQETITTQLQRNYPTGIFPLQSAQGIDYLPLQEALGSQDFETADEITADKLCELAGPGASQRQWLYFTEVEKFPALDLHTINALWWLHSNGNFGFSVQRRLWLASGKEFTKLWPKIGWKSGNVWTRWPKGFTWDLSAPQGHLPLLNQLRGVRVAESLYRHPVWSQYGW
Excerpt: (§1) tryptophan fluorescence quenching on SynGUN4

SynGUN4 [3] = target: T3, SynGUN4 (Synechocystis sp. PCC 6803, UniProt P72583, R214A); assay: tryptophan fluorescence quenching; type: binding; conditions: read-out: dissociation constant
T3 construct: gene sll0558; full length, residues 1-233; E. coli BL21(DE3)
T3 sequence (P72583 whole entry R214A, the tested form may be a part): as the sequence (P72583 whole entry R113A, the tested form may be a part) above, with A113R, R214A counted along it
Excerpt: as §1

SynGUN4 [4] = target: T4, SynGUN4 (Synechocystis sp. PCC 6803, UniProt P72583, L222A); assay: tryptophan fluorescence quenching; type: binding; conditions: read-out: dissociation constant
T4 construct: gene sll0558; full length, residues 1-233; E. coli BL21(DE3)
T4 sequence (P72583 whole entry L222A, the tested form may be a part): as the sequence (P72583 whole entry R113A, the tested form may be a part) above, with A113R, L222A counted along it
Excerpt: as §1

SynGUN4 [5] = target: T5, SynGUN4 (Synechocystis sp. PCC 6803, UniProt P72583, A219G); assay: tryptophan fluorescence quenching; type: binding; conditions: read-out: dissociation constant
T5 construct: gene sll0558; full length, residues 1-233; E. coli BL21(DE3)
T5 sequence (P72583 whole entry A219G, the tested form may be a part): as the sequence (P72583 whole entry R113A, the tested form may be a part) above, with A113R, A219G counted along it
Excerpt: as §1

[6] = substrate: CC1=C(CCC(=O)O)c2cc3nc(cc4[nH]c(cc4C)cc4[nH]c(cc1n2)cc4C)C(C)=C3CCC(=O)O; assay: Mg-Deutero formation by fluorescence; type: biochemical, Synechocystis sp. PCC 6803; conditions: no SynGUN4, 200 nM ChlH (methods: 0.1 μM ChlH), 20 mM MgCl2, 5 mM ATP, 50 mM MOPS-KOH pH 7.7, 1 mM DTT, 34 °C

T1 sequence (P72583 whole entry, the tested form may be a part): as the sequence (P72583 whole entry R113A, the tested form may be a part) above, with A113R counted along it

Kd (SynGUN4 [1]; 50 mM MOPS-KOH pH 7.7, 150 mM NaCl, 1 mM DTT, one-site fit): 2.67 ± 0.856 µM
Molecule: C=CC1=C(C)C2=NC1=Cc1c(C)c(C=C)c3[n]1[Co+][n]1c(c(C)c(CCC(=O)O)c1=CC1=NC(=C3)C(C)=C1CCC(=O)O)=C2 [Co-Proto]

Kd (SynGUN4 [1]): 0.865 ± 0.146 µM
Kd (SynGUN4 [2]): 7.83 ± 1.99 µM
Kd (SynGUN4 [3]): 10.9 ± 4.06 µM
Kd (SynGUN4 [4]): 6.61 ± 1.02 µM
Kd (SynGUN4 [5]): 1.56 ± 0.459 µM
Molecule: CC1=C(CCC(=O)O)c2cc3nc(cc4[nH]c(cc4C)cc4[nH]c(cc1n2)cc4C)C(C)=C3CCC(=O)O [Deutero]

B1: Synechocystis Mg-chelatase (ChlH, ChlD, ChlI) (Synechocystis sp. PCC 6803 substr. Kazusa) (protein)
chain: MFTNVKSTIRRVDPEALNGRQLLKVVYVVLESQYQSALSAAVRNINRTNSSLAIQLTGYLIEELRDPENYANFKHDVSEANLFIASLIFIEDLADKVVEAVTPYRDNLDAAIVFPSMPQVMRLNKMGSFSMAQLGQSKSAIAQFMKKRKENSSGAGFQDAMLKLLRTLPTVLKYLPVEKAQDARNFMLSFQYWLGGSQENLENFLLMLTDKYVYPDLGLDKLVNYQEPVVYPDMGIWHPLSMQMFENVKDYLEWYNQRPDISEDLKDPLAPCIGLIMQRTHLVTGDDAHYVGMVQELEAMGARVICVFSGGLDFSKPVNEYFWDKSVNGVEPLPIVDAVVSLTGFALVGGPARQDHPRAIESLKKLNRPYMCALPLVFQTTEEWEASDLGLHPIQVALQIAIPELDGAIEPIILSGRDGSTGRAIALQDRLEAIAQRAMKWANLRKKPKLDKKVAITVFSFPPDKGNVGTAAYLDVFGSIYEVMKGLQGNGYDVQDLPGSAKELMEAVIHDAQAQYNSPELNIAHRMSVEQYERLTPYSVRLEENWGKPPGHLNSDGQNLLIYGKEFGNVFIGVQPTFGYEGDPMRLLFSRSASPHHGFAAYYTYLNHIWKADAVLHFGTHGSLEFMPGKQMGMSGECYPDNLIGTIPNLYYYAANNPSEATIAKRRGYASTISYLTPPAENAGLYKGLQELNELIGSYQTLKDSGRGIQIVNTIMDQARICNLDQDVNLPDINAEEMDQGQRDTIVGSVYRKLMEIESRLLPCGLHVIGQPPSAEEAIATLVNIASLDREDEGIWALPTLIAESIGRNMEEIYRNSDKGILADVELLQDITLATRAAVAALVQEQINADGRVSFVSKLNFFKIGKKAPWVKSLCDSGYPNVNEEKLKPLFEYLEFCLEQVCADNEFGGLLQALEGEYVLPGPGGDPIRNPNVLPTGKNIHALDPQSIPTLAAVQSAKVVVDRLLERQRAENGGNYPETIASVLWGTDNIKTYGESLAQIMWMVGAKPVPDALGRVNKIELVPLEELGRPRIDVVVNCSGVFRDLFINQMNLLDQAVKLAAEADEPLEMNFVRKHALEQAEEMGIGVREAATRIFSNASGSYSSNVNLAVENSSWEDESELQEMYLKRKSFAFNSDNPGMMDQNRDMFERALKTADATFQNLDSSEISLTDVSHYFDSDPTKLISTLRDDGKAPAAYIADTTTANAQVRTLSETVRLDARTKLLNPKWYEGMLSHGYEGVRELSKRLVNTMGWSATAGAVDNWVYEDANSTFIKDEEMCKRLMDLNPNSFRRMVSTLLEVNGRGYWETSDENLERLQELYQEVEDRIEGVE
notes: with Magnesium-chelatase subunit ChlD; Magnesium-chelatase subunit ChlI
Km [6]: 7.46 ± 3.24 µM
